Assays:
GTPase KRas/RAF1 = GTPase KRas/RAF1 (Homo sapiens, UniProt P01116); test: Inhibition of biotinylated wild type KRAS (1 to 169 residues) (unknown origin)/CRAF RBD (unknown origin) protein-protein interaction preincubated for 60 mins followed by SOS1 and GTPgs addition measured after 60 mins by FRET assay
[1] = Inhibition of biotinylated KRAS G12D mutant (unknown origin)/CRAF RBD (unknown origin) protein-protein interaction preincubated for 60 mins followed by SOS1 and GTPgs addition measured after 60 mins by FRET assay; parameters: species or system Homo sapiens

C[C@H](NC(=O)[C@H]1C[C@@H](O)CN1C(=O)[C@@H](NC(=O)CCOCCCN1CCC[C@H]1COc1nc(N2CC3CCC(C2)N3)c2cc(Cl)c(-c3ccc(F)c4sc(N)c(C#N)c34)c(F)c2n1)C(C)(C)C)c1ccc(-c2c(F)cccc2F)cc1
IC50 (GTPase KRas/RAF1): 77.7 nM
IC50 [1]: 7.67 nM

C#Cc1c(F)ccc2cc(O)cc(-c3ncc4c(N5CC6CCC(C5)N6)nc(OC[C@@H]5CCCN5CCCOCCC(=O)N[C@H](C(=O)N5C[C@H](O)C[C@@H]5C(=O)N[C@@H](C)c5ccc(-c6ccncc6C#N)cc5)C(C)(C)C)nc4c3F)c12
IC50 (GTPase KRas/RAF1): 24.2 nM
IC50 [1]: 7.93 nM

Cc1ncsc1-c1ccc([C@H](C)NC(=O)[C@H]2C[C@@H](O)CN2C(=O)[C@@H](NC(=O)CCOCCCN2CCC[C@H]2COc2nc(N3CC4CCC(C3)N4)c3cnc(-c4cc(O)cc5cccc(F)c45)c(F)c3n2)C(C)(C)C)cc1
IC50 (GTPase KRas/RAF1): 158 nM
IC50 [1]: 8.21 nM

C[C@H](NC(=O)[C@H]1C[C@@H](O)CN1C(=O)[C@@H](NC(=O)CCOCCCN1CCC[C@H]1COc1nc(N2CC3CCC(C2)N3)c2cc(C(F)(F)F)c(-c3ccc(F)c4sc(N)c(C#N)c34)c(F)c2n1)C(C)(C)C)c1ccc(-c2c(F)cccc2F)cc1
IC50 (GTPase KRas/RAF1): 26.9 nM
IC50 [1]: 8.52 nM

C#Cc1c(F)ccc2cc(O)cc(-c3ncc4c(N5CC6CCC(C5)N6)nc(OC[C@@H]5CCCN5CCCOCCC(=O)N[C@H](C(=O)N5C[C@H](O)C[C@@H]5C(=O)N[C@@H](C)c5ccc(-c6c(F)cccc6F)cc5)C(C)(C)C)nc4c3F)c12
IC50 (GTPase KRas/RAF1): 41.9 nM
IC50 [1]: 9.4 nM

Cc1ncsc1-c1ccc([C@H](C)NC(=O)[C@H]2C[C@@H](O)CN2C(=O)[C@@H](NC(=O)CCOCCCN2CCC[C@H]2COc2nc(N3CC4CCC(C3)N4)c3cc(Cl)c(-c4ccc(F)c5sc(N)c(C#N)c45)c(F)c3n2)C(C)(C)C)cc1
IC50 (GTPase KRas/RAF1): 25.9 nM
IC50 [1]: 8.18 nM
